Measurements as given in patent publication US20260241012A1, “1,8-NAPHTHYRIDIN-2-ONE HETEROBIFUNCTIONAL BCL6 DEGRADERS” (Treeline Biosciences, Inc., priority 2022, published 2026).

Target: T1, N-terminal HiBiT tagged BCL6 (Homo sapiens, UniProt P41182)
T1 construct: expressed in transfected cells; host or cells: HT1080 (ATCC CCL-121), stably transduced with lentivirus pLV-UBC-N-HiBiT-BCL6-PGK-puro
Assay: HiBiT based degradation assay
Assay type: cell-based
Details: HT1080 cells expressing N-terminal HiBiT tagged BCL6, 5 hours of incubation; for Ymin (5 hr): BCL6 degradation normalized with DMSO control; for DC50: four-parameter logistic model, read-out: EC50 (5 hr)
Summary of the method: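 Degradation measured by luminescence from the Nano-Glo HiBiT lytic reagent (15 min, room temperature), normalized to DMSO controls and fitted to a four-parameter curve.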

Ymin (5 hr)	DC50 [nM]	Compound
+++ (30% ≤ Ymin < 50%)	< 10	CNC(=O)COc1cc2cc(Nc3nc(N4CC[C@@H](CN5CCN(c6ccc7c(C8CCC(=O)NC8=O)nn(C)c7c6)CC5)[C@H](C)C4)ncc3Cl)cnc2n(C(C)C)c1=O (stereo partly drawn) [Compound 176d, 2-[[6-[[5-chloro-2-[(3S,4R)-4-[[4-[3-(2,6-dioxo-3-piperidyl)-1-methyl-indazol-6-yl]piperazin-1-yl]methyl]-3-methyl-1-piperidyl]pyrimidin-4-yl]amino]-1-isopropyl-2-oxo-1,8-naphthyridin-3-yl]oxy]-N-methyl-acetamide]
+++ (30% ≤ Ymin < 50%)	< 10	CNC(=O)COc1cc2cc(Nc3nc(N4CCC(C(=O)N5CCN(c6ccc7c(C8CCC(=O)NC8=O)nn(C)c7c6)CC5)CC4)ncc3Cl)cnc2n(C(C)C)c1=O (stereo not drawn) [Compound 211, 2-[[6-[[5-chloro-2-[4-[4-[3-(2,6-dioxo-3-piperidyl)-1-methyl-indazol-6-yl]piperazine-1-carbonyl]-1-piperidyl]pyrimidin-4-yl]amino]-1-isopropyl-2-oxo-1,8-naphthyridin-3-yl]oxy]-N-methyl-acetamide]
++++ (Ymin < 30%)	< 10	CNC(=O)COc1cc2cc(Nc3nc(N4CC5(CCC(Nc6ccc7c(C8CCC(=O)NC8=O)nn(C)c7c6)CC5)C4)ncc3Cl)cnc2n(C(C)C)c1=O (stereo not drawn) [Compound 182, 2-((6-((5-chloro-2-(7-((3-(2,6-dioxopiperidin-3-yl)-1-methyl-1H-indazol-6-yl)amino)-2-azaspiro[3.5]nonan-2-yl)pyrimidin-4-yl)amino)-1-isopropyl-2-oxo-1,2-dihydro-1,8-naphthyridin-3-yl)oxy)-N-methylacetamide]
++++ (Ymin < 30%)	10 to 100	CNC(=O)COc1cc2cc(Nc3nc(N4CCN(CC5CCN(c6cccc7c(C8CCC(=O)NC8=O)nn(C)c67)CC5(F)F)CC4)ncc3Cl)cnc2n(C(C)C)c1=O (stereo not drawn) [Compound 241, 2-((6-((5-chloro-2-(4-((1-(3-(2,6-dioxopiperidin-3-yl)-1-methyl-1H-indazol-7-yl)-3,3-difluoropiperidin-4-yl)methyl)piperazin-1-yl)pyrimidin-4-yl)amino)-1-isopropyl-2-oxo-1,2-dihydro-1,8-naphthyridin-3-yl)oxy)-N-methylacetamide]
++ (50% ≤ Ymin < 70%)	< 10	CNC(=O)COc1cc2cc(Nc3nc(N4CCC(C(C)(C)N5CCN(c6ccc7c(C8CCC(=O)NC8=O)nn(C)c7c6)CC5)CC4)ncc3Cl)cnc2n(C(C)C)c1=O (stereo not drawn) [Compound 171, 2-[[6-[[5-chloro-2-[4-[1-[4-[3-(2,6-dioxo-3-piperidyl)-1-methyl-indazol-6-yl]piperazin-1-yl]-1-methyl-ethyl]-1-piperidyl]pyrimidin-4-yl]amino]-1-isopropyl-2-oxo-1,8-naphthyridin-3-yl]oxy]-N-methyl-acetamide]
++++ (Ymin < 30%)	< 10	CNC(=O)COc1cc2cc(Nc3nc(N4CC5(CCC(Nc6ccc7c(C8CCC(=O)NC8=O)nn(C)c7c6)CC5)C4)ncc3Cl)cnc2n(C)c1=O (stereo not drawn) [Compound 138, 2-((6-((5-chloro-2-(7-((3-(2,6-dioxopiperidin-3-yl)-1-methyl-1H-indazol-6-yl)amino)-2-azaspiro[3.5]nonan-2-yl)pyrimidin-4-yl)amino)-1-methyl-2-oxo-1,2-dihydro-1,8-naphthyridin-3-yl)oxy)-N-methylacetamide]
+++ (30% ≤ Ymin < 50%)	10 to 100	CNC(=O)COc1cc2cc(Nc3nc(N4CCN(CC5CCN(c6cccc7c(C8CCC(=O)NC8=O)nn(C)c67)CC5)[C@H](C(C)(C)O)C4)ncc3Cl)cnc2n(C(C)C)c1=O (stereo partly drawn) [Compound 208a, 2-[[6-[[5-chloro-2-[(3S)-4-[[1-[3-(2,6-dioxo-3-piperidyl)-1-methyl-indazol-7-yl]-4-piperidyl]methyl]-3-(1-hydroxy-1-methyl-ethyl)piperazin-1-yl]pyrimidin-4-yl]amino]-1-isopropyl-2-oxo-1,8-naphthyridin-3-yl]oxy]-N-methyl-acetamide]
++++ (Ymin < 30%)	< 10	CNC(=O)COc1cc2cc(Nc3nc(N4CC5(CC[C@H](Nc6ccc7c(C8CCC(=O)NC8=O)nn(C)c7c6)[C@@H](C)C5)C4)ncc3Cl)cnc2n(C)c1=O (single isomer, unassigned) [Compound 156a]
+++ (30% ≤ Ymin < 50%)	10 to 100	CNC(=O)COc1cc2cc(Nc3nc(N4CC5(CC[C@@H](Nc6ccc7c(C8CCC(=O)NC8=O)nn(C)c7c6)[C@@H](C)C5)C4)ncc3Cl)cnc2n(C(C)C)c1=O (relative stereo) [Compound 180a, rel-2-((6-((5-chloro-2-((6S,7R)-7-((3-(2,6-dioxopiperidin-3-yl)-1-methyl-1H-indazol-6-yl)amino)-6-methyl-2-azaspiro[3.5]nonan-2-yl)pyrimidin-4-yl)amino)-1-isopropyl-2-oxo-1,2-dihydro-1,8-naphthyridin-3-yl)oxy)-N-methylacetamide]
++++ (Ymin < 30%)	< 10	CNC(=O)COc1cc2cc(Nc3nc(N4CC5(CC(Nc6ccc7c(C8CCC(=O)NC8=O)nn(C)c7c6)C5)C4)ncc3Cl)cnc2n(C(C)C)c1=O (stereo not drawn) [Compound 202, 2-[[6-[[5-chloro-2-[6-[[3-(2,6-dioxo-3-piperidyl)-1-methyl-indazol-6-yl]amino]-2-azaspiro[3.3]heptan-2-yl]pyrimidin-4-yl]amino]-1-isopropyl-2-oxo-1,8-naphthyridin-3-yl]oxy]-N-methyl-acetamide]
+++ (30% ≤ Ymin < 50%)	10 to 100	CNC(=O)COc1cc2cc(Nc3nc(N4CCN(C[C@@H]5CCN(c6ccc7c(C8CCC(=O)NC8=O)nn(C)c7c6)C5)[C@@H](C)C4)ncc3Cl)cnc2n(C(C)C)c1=O (stereo partly drawn) [Compound 216b, 2-((6-((5-Chloro-2-((3S)-4-(((3S)-1-(3-(2,6-dioxopiperidin-3-yl)-1-methyl-1H-indazol-6-yl)pyrrolidin-3-yl)methyl)-3-methylpiperazin-1-yl)pyrimidin-4-yl)amino)-1-isopropyl-2-oxo-1,2-dihydro-1,8-naphthyridin-3-yl)oxy)-N-methylacetamide]
+++ (30% ≤ Ymin < 50%)	< 10	CNC(=O)COc1cc2cc(Nc3nc(N4CCN(C[C@@H]5CCN(c6ccc7c(C8CCC(=O)NC8=O)nn(C)c7c6)C5)[C@H](C)C4)ncc3Cl)cnc2n(C(C)C)c1=O (stereo partly drawn) [Compound 216d, 2-[[6-[[5-chloro-2-[(3R)-4-[[(3S)-1-[3-(2,6-dioxo-3-piperidyl)-1-methyl-indazol-6-yl]pyrrolidin-3-yl]methyl]-3-methyl-piperazin-1-yl]pyrimidin-4-yl]amino]-1-isopropyl-2-oxo-1,8-naphthyridin-3-yl]oxy]-N-methyl-acetamide]
++ (50% ≤ Ymin < 70%)	< 10	CNC(=O)COc1cc2cc(Nc3nc(N4CCN([C@H]5C[C@H](OC6CCN(c7ccc8c(C9CCC(=O)NC9=O)nn(C)c8c7)CC6)C5)CC4)ncc3Cl)cnc2n(C(C)C)c1=O (stereo partly drawn) [Compound 227a, 2-((6-((5-chloro-2-(4-((1r,3r)-3-((1-(3-(2,6-dioxopiperidin-3-yl)-1-methyl-1H-indazol-6-yl)piperidin-4-yl)oxy)cyclobutyl)piperazin-1-yl)pyrimidin-4-yl)amino)-1-isopropyl-2-oxo-1,2-dihydro-1,8-naphthyridin-3-yl)oxy)-N-methylacetamide]
+++ (30% ≤ Ymin < 50%)	100 to 1000	CNC(=O)COc1cc2cc(Nc3nc(N4CC[C@@H](CN5CCN(c6cccc7c(C8CCC(=O)NC8=O)nn(C)c67)CC5)[C@H](C)C4)ncc3Cl)cnc2n(C(C)C)c1=O (stereo partly drawn) [Compound 177c, 2-[[6-[[5-chloro-2-[(3S,4R)-4-[[4-[3-(2,6-dioxo-3-piperidyl)-1-methyl-indazol-7-yl]piperazin-1-yl]methyl]-3-methyl-1-piperidyl]pyrimidin-4-yl]amino]-1-isopropyl-2-oxo-1,8-naphthyridin-3-yl]oxy]-N-methyl-acetamide]
+++ (30% ≤ Ymin < 50%)	10 to 100	CNC(=O)COc1cc2cc(Nc3nc(N4CC[C@@H](CN5CCN(c6ccc7c(C8CCC(=O)NC8=O)nn(C)c7c6)CC5)[C@@H](C)C4)ncc3Cl)cnc2n(C(C)C)c1=O (stereo partly drawn) [Compound 176c, 2-((6-((5-chloro-2-((3R,4R)-4-((4-(3-(2,6-dioxopiperidin-3-yl)-1-methyl-1H-indazol-6-yl)piperazin-1-yl)methyl)-3-methylpiperidin-1-yl)pyrimidin-4-yl)amino)-1-isopropyl-2-oxo-1,2-dihydro-1,8-naphthyridin-3-yl)oxy)-N-methylacetamide]
++++ (Ymin < 30%)	< 10	CNC(=O)COc1cc2cc(Nc3nc(N4CC5(CC[C@@H](Nc6ccc7c(C8CCC(=O)NC8=O)nn(C)c7c6)[C@@H](C)C5)C4)ncc3Cl)cnc2n(C)c1=O (single isomer, unassigned) [Compound 156c]
++++ (Ymin < 30%)	10 to 100	CNC(=O)COc1cc2cc(Nc3nc(N4CCC(CN5CCN(c6cccc7c(C8CCC(=O)NC8=O)nn(C)c67)C[C@H]5C)CC4)ncc3Cl)cnc2n(C(C)C)c1=O (stereo partly drawn) [Compound 192b, 2-[[6-[[5-chloro-2-[4-[[(2R)-4-[3-(2,6-dioxo-3-piperidyl)-1-methyl-indazol-7-yl]-2-methyl-piperazin-1-yl]methyl]-1-piperidyl]pyrimidin-4-yl]amino]-1-isopropyl-2-oxo-1,8-naphthyridin-3-yl]oxy]-N-methyl-acetamide]

Compound	Ymin (5 hr)	DC50 [nM]
CNC(=O)COc1cc2cc(Nc3nc(N4C5CC4CN(CC4CCN(c6cccc7c(C8CCC(=O)NC8=O)nn(C)c67)CC4)C5)ncc3Cl)cnc2n(C(C)C)c1=O (stereo not drawn) [Compound 173, 2-[[6-[[5-chloro-2-[3-[[1-[3-(2,6-dioxo-3-piperidyl)-1-methyl-indazol-7-yl]-4-piperidyl]methyl]-3,6-diazabicyclo[3.1.1]heptan-6-yl]pyrimidin-4-yl]amino]-1-isopropyl-2-oxo-1,8-naphthyridin-3-yl]oxy]-N-methyl-acetamide]	++ (50% ≤ Ymin < 70%)	10 to 100
